Values joined by “and” are separate entries in the source; they are usually repeats but may differ in a detail not shown here. Identical values can stand only once. Like-named read-outs stand apart in the source and are kept apart here. Residues, ends and D or L forms follow the SMILES beside them. *: point of attachment. Cbz = O=C(OCc1ccccc1)*

For one test, the target named is T1, BRD4/CRBN interaction (Homo sapiens, UniProt O60885+Q96SW2).
T1 construct: β10-IN (tNLuc β10 peptide + GP41-1 split intein N fragment) (N); V5; IC-β9 (GP41-1 split intein C fragment + tNLuc β9 peptide) (N); FLAG; expressed in transfected cells
T1 sequence (Q96SW2 whole entry, the tested form may be a part): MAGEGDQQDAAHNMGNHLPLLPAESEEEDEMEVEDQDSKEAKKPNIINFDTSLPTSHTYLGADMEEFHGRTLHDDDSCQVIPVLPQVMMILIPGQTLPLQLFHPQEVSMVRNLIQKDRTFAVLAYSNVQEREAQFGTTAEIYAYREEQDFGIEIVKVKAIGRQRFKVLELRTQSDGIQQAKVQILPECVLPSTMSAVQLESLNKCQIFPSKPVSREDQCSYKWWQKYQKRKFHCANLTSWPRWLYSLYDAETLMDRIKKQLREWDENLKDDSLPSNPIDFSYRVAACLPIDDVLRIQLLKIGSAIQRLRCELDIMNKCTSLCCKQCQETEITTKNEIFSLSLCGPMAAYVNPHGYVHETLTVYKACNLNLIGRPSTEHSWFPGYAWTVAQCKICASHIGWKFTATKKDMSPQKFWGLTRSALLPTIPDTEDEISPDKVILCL
T1 sequence (Q16531 whole entry, further chain, the tested form may be a part): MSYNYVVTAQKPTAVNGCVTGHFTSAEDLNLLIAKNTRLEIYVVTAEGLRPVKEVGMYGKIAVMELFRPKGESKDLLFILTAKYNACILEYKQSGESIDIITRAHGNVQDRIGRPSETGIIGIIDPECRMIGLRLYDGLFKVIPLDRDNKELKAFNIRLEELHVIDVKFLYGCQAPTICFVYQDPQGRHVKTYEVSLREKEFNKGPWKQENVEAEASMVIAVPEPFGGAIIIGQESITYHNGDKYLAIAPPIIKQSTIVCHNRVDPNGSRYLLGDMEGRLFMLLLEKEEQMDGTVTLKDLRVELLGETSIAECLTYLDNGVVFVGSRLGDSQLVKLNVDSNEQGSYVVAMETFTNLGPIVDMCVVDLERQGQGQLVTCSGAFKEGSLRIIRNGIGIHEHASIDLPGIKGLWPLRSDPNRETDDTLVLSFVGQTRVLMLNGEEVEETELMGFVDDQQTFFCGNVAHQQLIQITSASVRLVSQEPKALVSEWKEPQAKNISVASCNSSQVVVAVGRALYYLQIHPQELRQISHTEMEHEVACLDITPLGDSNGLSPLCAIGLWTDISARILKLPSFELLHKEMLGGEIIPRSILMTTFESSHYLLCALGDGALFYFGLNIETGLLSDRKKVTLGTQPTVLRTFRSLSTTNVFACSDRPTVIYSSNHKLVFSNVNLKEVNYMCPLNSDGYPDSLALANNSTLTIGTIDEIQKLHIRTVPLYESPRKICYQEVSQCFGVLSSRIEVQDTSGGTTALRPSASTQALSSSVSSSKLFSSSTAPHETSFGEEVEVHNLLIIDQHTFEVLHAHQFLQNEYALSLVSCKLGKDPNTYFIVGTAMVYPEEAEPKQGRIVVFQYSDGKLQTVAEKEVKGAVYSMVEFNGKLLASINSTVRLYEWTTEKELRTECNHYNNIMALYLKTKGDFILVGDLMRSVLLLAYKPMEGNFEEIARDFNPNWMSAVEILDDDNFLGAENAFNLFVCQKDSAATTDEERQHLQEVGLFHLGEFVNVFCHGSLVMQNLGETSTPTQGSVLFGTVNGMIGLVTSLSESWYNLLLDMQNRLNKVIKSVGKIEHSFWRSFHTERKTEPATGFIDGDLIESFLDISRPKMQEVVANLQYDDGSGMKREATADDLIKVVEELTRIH
Put plainly: SIMPL2 assay CRBN/BRD4 (PROTAC). The format is cell-based. As to conditions: MG132 1 μM, ARV-825 3 h.

The target of test [1] is T2, FRB/FKBP1A interaction (Homo sapiens, UniProt P42345+P62942). As to the kind of experiment: NanoBiT assay, rapamycin-mediated FRB/FKBP1A interaction. The format is cell-based. As to conditions: 2 h, expt 1-4.
T2 sequence (P42345 2012-2144 limits assumed): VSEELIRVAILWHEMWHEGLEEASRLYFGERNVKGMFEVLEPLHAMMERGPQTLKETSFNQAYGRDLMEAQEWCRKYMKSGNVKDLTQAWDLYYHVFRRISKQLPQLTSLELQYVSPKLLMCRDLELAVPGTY
T2 sequence (P62942 whole entry): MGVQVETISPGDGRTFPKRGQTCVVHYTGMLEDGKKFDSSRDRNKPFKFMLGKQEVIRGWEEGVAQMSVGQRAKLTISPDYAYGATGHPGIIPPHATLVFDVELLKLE
Test [2] addresses T2, FRB/FKBP1A interaction. Put plainly: SIMPL2 assay, rapamycin-mediated FRB/FKBP1A interaction. Particulars: for SIMPL2 signal (Fig. EV1B): IN/IC format, replicates 1-4; for SIMPL2(%) (Fig. EV1C): NIN/IC format, replicates 1-3; for SIMPL2 signal (Fig. 1D source data): 2 h, expt 1-4.
The target of test [3] is T2, FRB/FKBP1A interaction. Further details: method as in previous study. As to conditions: replicates 1-4, ref previous study, cited from earlier work; for ELISA signal (Fig. EV1B): IN/IC format; for ELISA_CIC signal (Fig. EV1C): NIN/IC format. On the technique in general: ELISA stands for enzyme-linked immunosorbent assay.

For `CC(C)C[C@@H](C=O)NC(=O)[C@H](CC(C)C)NC(=O)[C@H](CC(C)C)NC(=O)OCc1ccccc1` [MG132] (Cbz-Leu-Leu-Leu-aldehyde), the “effect of MG132 co-treatment on ARV-825 SIMPL2 signals” value on BRD4/CRBN interaction is “profoundly enhanced”.

`CO[C@H]1C[C@@H]2CC[C@@H](C)[C@@](O)(O2)C(=O)C(=O)N2CCCC[C@H]2C(=O)O[C@H]([C@H](C)C[C@@H]2CC[C@@H](O)[C@H](OC)C2)CC(=O)[C@H](C)/C=C(\C)[C@@H](O)[C@@H](OC)C(=O)[C@H](C)C[C@H](C)/C=C/C=C/C=C/1C` [rapamycin, Rapamycin]: the “NanoBiT signal (Fig. 1D source data)” value on FRB/FKBP1A interaction [1] (Rapa 0.004115 uM) was 43.0075 and 49.8338 and 39.8143 and 26.5473; on FRB/FKBP1A interaction [1] (Rapa 0.037037 uM), 98.7034 and 104.835 and 107.555 and 86.8025; at FRB/FKBP1A interaction [1] (Rapa 0.111111 uM), 98.0138 and 85.7365 and 105.867 and 81.894; on FRB/FKBP1A interaction [1] (Rapa 0.333333 uM) it was 102.818 and 83.4071 and 80.4272 and 114.561; at FRB/FKBP1A interaction [1] (Rapa 1 uM) it was 95.0191 and 104.766 and 93.7327 and 91.3484. Further, the “SIMPL2 signal (Fig. EV1B)” value at FRB/FKBP1A interaction [2] (Rapa 0.0508 nM) was 1.191 and 2.558 and 1.039 and 2.309; on FRB/FKBP1A interaction [2] (Rapa 0.152 nM), 2.258 and 4.019 and 1.902 and 3.528; at FRB/FKBP1A interaction [2] (Rapa 0.457 nM), 5.806 and 9.209 and 5.031 and 7.8055; on FRB/FKBP1A interaction [2] (Rapa 1.372 nM), 16.8705 and 22.7506 and 15.2406 and 19.2387; at FRB/FKBP1A interaction [2] (Rapa 4.115 nM), 40.6804 and 51.3157 and 39.8638 and 45.1426; on FRB/FKBP1A interaction [2] (Rapa 37.037 nM), 89.8203 and 93.2241 and 91.2356 and 88.6383. Besides, the “SIMPL2 signal (Fig. EV1B)” value was 100.397 and 91.658 and 100.471 and 94.6121 at FRB/FKBP1A interaction [2] (Rapa 111.111 nM); 99.7113 and 97.9264 and 105.182 and 96.7419 on FRB/FKBP1A interaction [2] (Rapa 333.333 nM); 92.6509 and 96.5256 and 102.635 and 100.443 on FRB/FKBP1A interaction [2] (Rapa 1000 nM). The “SIMPL2(%) (Fig. EV1C)” value at FRB/FKBP1A interaction [2] (Rapa 0.00188 nM) is 0.8086% (2×) and 0.8386%; on FRB/FKBP1A interaction [2] (Rapa 0.00565 nM) it was 0.599% and 0.6888% and 0.7487%; on FRB/FKBP1A interaction [2] (Rapa 0.0508 nM), 0.9284% and 1.198% and 0.7188%; on FRB/FKBP1A interaction [2] (Rapa 0.152 nM), 1.108% and 1.6472% and 0.8685%; at FRB/FKBP1A interaction [2] (Rapa 0.457 nM) it was 4.972% and 3.534% and 2.636%; at FRB/FKBP1A interaction [2] (Rapa 1.372 nM), 23.3303% and 15.2441% and 11.9197%. Further, the “SIMPL2(%) (Fig. EV1C)” value on FRB/FKBP1A interaction [2] (Rapa 4.115 nM) was 44.1749% and 37.1968% and 29.3801%; on FRB/FKBP1A interaction [2] (Rapa 37.037 nM) it was 91.9736% and 88.0503% and 89.0686%; at FRB/FKBP1A interaction [2] (Rapa 111.111 nM) it was 100.449% and 91.6442% and 102.935%; at FRB/FKBP1A interaction [2] (Rapa 333.333 nM) it was 113.267% and 99.5508% and 95.867%; at FRB/FKBP1A interaction [2] (Rapa 1000 nM) it was 95.5076% and 93.0518% and 96.2564%. For the same compound, the “SIMPL2 signal (Fig. 1D source data)” value is 47.8958 and 45.8282 and 46.7693 and 41.1245 at FRB/FKBP1A interaction [2] (Rapa 0.004115 uM); 84.8088 and 98.4637 and 120.48 and 94.9462 on FRB/FKBP1A interaction [2] (Rapa 0.037037 uM); 73.556 and 88.7889 and 90.3886 and 92.8218 on FRB/FKBP1A interaction [2] (Rapa 0.111111 uM); 97.7898 and 102.816 and 106.133 and 97.0409 at FRB/FKBP1A interaction [2] (Rapa 0.333333 uM); 104.171 and 101.443 and 85.3933 and 107.112 on FRB/FKBP1A interaction [2] (Rapa 1 uM). Further, the “ELISA signal (Fig. EV1B)” value at FRB/FKBP1A interaction [3] (Rapa 0.316 nM) is 14.411 and 5.166 and 5.566 and 4.9879; at FRB/FKBP1A interaction [3] (Rapa 1 nM), 5.323 and 5.028 and 5.963 and 6.1023; at FRB/FKBP1A interaction [3] (Rapa 3.162 nM) it was 8.457 and 7.647 and 8.056 and 8.736; on FRB/FKBP1A interaction [3] (Rapa 10 nM) it was 15.9974 and 15.1146 and 16.574 and 16.0467; at FRB/FKBP1A interaction [3] (Rapa 31.623 nM) it was 37.8238 and 37.9493 and 40.1437 and 41.1072; at FRB/FKBP1A interaction [3] (Rapa 100 nM), 80.3098 and 67.0371 and 79.2492 and 77.5358. In addition, the “ELISA signal (Fig. EV1B)” value at FRB/FKBP1A interaction [3] (Rapa 316.228 nM) is 106.072 and 95.5962 and 92.0797 and 90.9967; on FRB/FKBP1A interaction [3] (Rapa 1000 nM), 102.194 and 105.027 and 90.2049 and 93.6363. The “ELISA_CIC signal (Fig. EV1C)” value at FRB/FKBP1A interaction [3] (Rapa 0.3 nM) is 3.444 and 2.886 and 2.936 and 2.873; at FRB/FKBP1A interaction [3] (Rapa 1 nM) it was 3.091 and 2.372 and 3.062 and 3.035; at FRB/FKBP1A interaction [3] (Rapa 3 nM) it was 3.502 and 3.836 and 3.666 and 4.333; at FRB/FKBP1A interaction [3] (Rapa 10 nM) it was 6.943 and 6.073 and 6.559 and 6.143; at FRB/FKBP1A interaction [3] (Rapa 30 nM), 20.4969 and 16.4946 and 19.9923 and 21.7284; on FRB/FKBP1A interaction [3] (Rapa 100 nM), 72.9918 and 58.0659 and 78.6932 and 64.2948. Also, the “ELISA_CIC signal (Fig. EV1C)” value at FRB/FKBP1A interaction [3] (Rapa 300 nM) is 105.102 and 112.879 and 88.9461; at FRB/FKBP1A interaction [3] (Rapa 1000 nM), 95.1776 and 93.559 and 93.0646 and 80.9326.
